Data on 16 compounds can be found in US20230002348A1 (ILDONG PHARMACEUTICAL CO., LTD., priority 2019, published 2023).

What is called EC50 is the concentration giving half of the maximal effect. A lower EC50 goes with higher potency in that assay. As a reminder, the Emax is the maximal effect, on the per cent scale that the assay sets.

Molecules are shown by their SMILES. Where two headings read alike, the source gives them in different places. Bounds are passed on as bounds.

In the assay the target is T1, GLP-1 receptor (Homo sapiens, UniProt P43220).
T1 construct: expressed in transfected cells; host or cells: CHO-K1
The assay is described as follows: cAMP assay (HTRF) in GLP-1 receptor CHO-K1 cells. In kind it is cell-based. The conditions noted are these: for Emax: CHO-K1, cAMP stimulation ratio. Here is the method: The cAMP assay test was performed according to a method optimized based on a protocol provided by cAMP assay kit manufacturer (CISBIO). […] 54, of the compounds according to the Examples 1, 2, 5, 8, 12, 13, 15, 16, 19, 20, 23, 29, 32, 37, 39 and 43 at the concentration of 0, 1, 10, 100, 1000, 10000 nM was treated to each of the wells of the other plates, respectively. The cells were incubated at room temperature for 7 minutes. A cAMP-d2 conjugate reagent was prepared by mixing a cAMP conjugate with an elution buffer at a ratio of 1:4. An anti-cAMP cryptate conjugate reagent was prepared by mixing a […] with an elution buffer at a ratio of 1:4. Then, 5 μL, of the cAMP-d2 conjugate reagent was added to each of the wells. Subsequently, 5 μL, of the anti-cAMP cryptate conjugate reagent was added to each of the wells. After incubation of the cells at room temperature for 1 hour, HTRF signals at wavelengths of 665 nm and 620 nm of the culture were measured using a FlexStaton 3 (Molecular Devices) instrument. The ratio of 665/620 was calculated from the measured values at 665 nm and 620 nm with regard to Exendin-4 and the compounds of the Examples, respectively.
On the technique in general: Changes in cAMP serve as a functional read-out for many G protein-coupled receptors.

Where [1] appears, read: 665/620 ratio with Exendin-4 converted to 100%.

T1 sequence (P43220 24-463, species assumed): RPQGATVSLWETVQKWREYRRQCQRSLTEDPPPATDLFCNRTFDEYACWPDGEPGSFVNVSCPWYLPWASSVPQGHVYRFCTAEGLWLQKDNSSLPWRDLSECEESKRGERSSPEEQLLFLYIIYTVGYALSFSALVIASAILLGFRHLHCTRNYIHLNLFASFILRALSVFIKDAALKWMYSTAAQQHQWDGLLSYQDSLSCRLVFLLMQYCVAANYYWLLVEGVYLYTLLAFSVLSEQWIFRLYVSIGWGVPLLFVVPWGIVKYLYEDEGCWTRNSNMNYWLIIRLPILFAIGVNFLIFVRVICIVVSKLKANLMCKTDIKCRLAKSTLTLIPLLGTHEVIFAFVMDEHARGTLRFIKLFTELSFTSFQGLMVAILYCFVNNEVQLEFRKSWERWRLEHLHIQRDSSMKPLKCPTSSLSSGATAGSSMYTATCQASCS

As to `N#Cc1ccc(COc2cccc(NC3CCN(Cc4nc5ccc(C(=O)O)cc5n4C[C@@H]4CCO4)CC3)n2)c(F)c1` [Example 1, (S)-2-((4-((6-((4-cyano-2-fluorobenzyl)oxy)pyridin-2-yl)amino)piperidin-1-yl)methyl)-1-(oxetan-2-ylmethyl)-1H-benzo[d]imidazole-6-carboxylic acid], the concentration giving a half-maximal response (EC50) is less than 100 nM. Besides, under setting [1], the maximal effect (Emax) came out at 96.3%.

Regarding `N#Cc1ccc(COc2cccc(NC3CCN(Cc4nc5ccc(C(=O)O)cc5n4C[C@@H]4CCO4)CC3)c2)c(F)c1` [Example 2, (S)-2-((4-((3-((4-cyano-2-fluorobenzyl)oxy)phenyl)amino)piperidin-1-yl)methyl)-1-(oxetan-2-ylmethyl)-1H-benzo[d]imidazole-6-carboxylic acid], the half-maximal effective concentration (EC50) lay in the range of 100 to 200 nM. Further, the maximal response (Emax) under setting [1] stood at 102%.

With `O=C(O)c1ccc2nc(CN3CCC(Oc4cccc(NCc5ccc(Cl)cc5F)n4)CC3)n(C[C@@H]3CCO3)c2c1` [Example 5, (S)-2-((4-((6-((4-chloro-2-fluorobenzyl)amino)pyridin-2-yl)oxy)piperidin-1-yl)methyl)-1-(oxetan-2-ylmethyl)-1H-benzo[d]imidazole-6-carboxylic acid], the EC50 was in the range of 100 to 200 nM. Under setting [1], the maximal effect (Emax) amounted to 107%.

Compound `N#Cc1ccc(COc2cc(N[C@@H]3CCN(Cc4nc5ccc(C(=O)O)cc5n4C[C@@H]4CCO4)C3)ccc2F)nc1` [Example 8, 2-(((R)-3-((3-((5-cyanopyridin-2-yl)methoxy)-4-fluorophenyl)amino)pyrrolidin-1-yl)methyl)-1-(((S)-oxetan-2-yl)methyl)-1H-benzo[d]imidazole-6-carboxylic acid] gave an EC50 of less than 100 nM. For the same compound, under setting [1], the maximum response (Emax) turned out to be 99.6%.

Compound `O=C(O)c1ccc2nc(CN3CCC(Nc4cccc(OCc5ccc(Cl)cc5F)n4)CC3)n(C[C@@H]3CCO3)c2c1` [Example 12, (S)-2-((4-((6-((4-chloro-2-fluorobenzyl)oxy)pyridin-2-yl)amino)piperidin-1-yl)methyl)-1-(oxetan-2-ylmethyl)-1H-benzo[d]imidazole-6-carboxylic acid] showed a half-maximal effective concentration (EC50) of less than 100 nM. Moreover, the Emax under setting [1] is 103%.

Consider `O=C(O)c1ccc2nc(CN3CCC(Nc4cccc(OCc5ccc(Cl)cc5F)n4)CC3)n(C[C@@H]3CCO3)c2n1` [Example 13], for which the EC50 is less than 100 nM. For the same compound, the Emax under setting [1] is 94.5%.

`O=C(O)c1ccc2nc(CN3CC[C@@H](Nc4cccc(OCc5ccc(Cl)cc5F)n4)C3)n(C[C@@H]3CCO3)c2c1` [Example 15, 2-(((R)-3-((6-((4-chloro-2-fluorobenzyl)oxy)pyridin-2-yl)amino)pyrrolidin-1-yl)methyl)-1-(((S)-oxetan-2-yl)methyl)-1H-benzo[d]imidazole-6-carboxylic acid]: the concentration giving a half-maximal response (EC50) is less than 100 nM. Moreover, the Emax under setting [1] was determined as 99.6%.

`O=C(O)c1ccc2nc(CN3CC[C@@H](Nc4cccc(OCc5ccc(Cl)cc5F)n4)C3)n(C[C@@H]3CCO3)c2n1` [Example 16, 2-(((R)-3-((6-((4-chloro-2-fluorobenzyl)oxy)pyridin-2-yl)amino)pyrrolidin-1-yl)methyl)-3-(((S)-oxetan-2-yl)methyl)-3H-imidazo[4,5-b]pyridine-5-carboxylic acid] gave a concentration giving a half-maximal response (EC50) of less than 100 nM. Besides, the Emax under setting [1] worked out at 95%.

Take `N#Cc1ccc(COc2cncc(NC3CCN(Cc4nc5ccc(C(=O)O)cc5n4C[C@@H]4CCO4)CC3)n2)c(F)c1` [Example 19, (S)-2-((4-((6-((4-cyano-2-fluorobenzyl)oxy)pyrazin-2-yl)amino)piperidin-1-yl)methyl)-1-(oxetan-2-ylmethyl)-1H-benzo[d]imidazole-6-carboxylic acid]: the EC50 lay in the range of 100 to 200 nM. Moreover, the maximal effect (Emax) under setting [1] came out at 97%.

Take `N#Cc1ccc(COc2cccc(N[C@@H]3CCN(Cc4nc5ccc(C(=O)O)cc5n4C[C@@H]4CCO4)C3)n2)c(F)c1` [Example 20, 2-((3-((6-((4-cyano-2-fluorobenzyl)oxy)pyridin-2-yl)amino)pyrrolidin-1-yl)methyl)-1-(((S)-oxetan-2-yl)methyl)-1H-benzo[d]imidazole-6-carboxylic acid]: the concentration giving a half-maximal response (EC50) was less than 100 nM. For the same compound, the Emax under setting [1] worked out at 96.3%.

Regarding `N#Cc1ccc(COc2nccc(N[C@@H]3CCN(Cc4nc5ccc(C(=O)O)cc5n4C[C@@H]4CCO4)C3)n2)c(F)c1` [Example 23, 2-(((R)-3-((2-((4-cyano-2-fluorobenzyl)oxy)pyrimidin-4-yl)amino)pyrrolidin-1-yl)methyl)-1-(((S)-oxetan-2-yl)methyl)-1H-benzo[d]imidazole-6-carboxylic acid], the EC50 lay in the range of 100 to 200 nM. Moreover, the Emax under setting [1] was 99.8%.

As to `O=C(O)c1ccc2nc(CN3CC[C@@H](Nc4ncc(F)c(OCc5ccc(Cl)cc5F)n4)C3)n(C[C@@H]3CCO3)c2c1` [Example 29, 2-(((R)-3-((4-((4-chloro-2-fluorobenzyl)oxy)-5-fluoropyrimidin-2-yl)amino)pyrrolidin-1-yl)methyl)-1-(((S)-oxetan-2-yl)methyl)-1H-benzo[d]imidazole-6-carboxylic acid], the EC50 is less than 100 nM. Also, the maximum response (Emax) under setting [1] turned out to be 99.2%.

As to `N#Cc1ccc(COc2cccc(N[C@@H]3CCN(Cc4nc5ccc(C(=O)O)cc5n4C[C@@H]4CCO4)C3)n2)c(F)c1` [Example 32, 2-(((R)-3-((6-((4-cyano-2-fluorobenzyl)oxy)pyridin-2-yl)amino)pyrrolidin-1-yl)methyl)-1-(((S)-oxetan-2-yl)methyl)-1H-benzo[d]imidazole-6-carboxylic acid], the concentration for a half-maximal effect (EC50) (GLP-1 receptor CHO-K1 cells, cAMP HTRF, 7 minutes incubation at room temperature) is less than 100 nM. For the same compound, for the setting “cAMP stimulation ratio, 665/620 ratio with Exendin-4 converted to 100%”, the “Emax (%)” value stood at 96.94%.

In the case of `N#Cc1ccc(COc2cccc(N[C@@H]3CCN(Cc4nc5ccc(C(=O)O)cc5n4C[C@@H]4CCO4)C3)c2)c(F)c1` [Example 37, 2-(((R)-3-((3-((4-cyano-2-fluorobenzyl)oxy)phenyl)amino)pyrrolidin-1-yl)methyl)-1-(((S)-oxetan-2-yl)methyl)-1H-benzo[d]imidazole-6-carboxylic acid], the EC50 is less than 100 nM. Also, the Emax under setting [1] came to 127%.

Consider `O=C(O)c1ccc2nc(CN3CCC(Nc4cccc(OCc5ccc(Cl)cn5)n4)CC3)n(C[C@@H]3CCO3)c2c1` [Example 39, (S)-2-((4-((6-((5-chloropyridin-2-yl)methoxy)pyridin-2-yl)amino)piperidin-1-yl)methyl)-1-(oxetan-2-ylmethyl)-1H-benzo[d]imidazole-6-carboxylic acid], for which the concentration giving a half-maximal response (EC50) lay in the range of 100 to 200 nM. Moreover, under setting [1], the Emax worked out at 96.6%.

Take `N#Cc1ccc(COc2ccnc(N[C@@H]3CCN(Cc4nc5ccc(C(=O)O)cc5n4C[C@@H]4CCO4)C3)n2)c(F)c1` [Example 43, 2-(((R)-3-((4-((4-cyano-2-fluorobenzyl)oxy)pyrimidin-2-yl)amino)pyrrolidin-1-yl)methyl)-1-(((S)-oxetan-2-yl)methyl)-1H-benzo[d]imidazole-6-carboxylic acid]: the EC50 is less than 100 nM. Under setting [1], the Emax came out at 110%.
